The first test concerns HLA class I. Description: PEPI3+ Test: 9 mer epitopes binding to at least 3 HLA class I of individuals in the Model Population (n=433). The arrangement: species or system human. Conditions: N % (antigen expression frequency in lung cancers) multiplied by B %.
In the case of 90 (FAADVRLMF; BRDT 9mer) [compound 90], the “N % * B %” value amounted to 28%.

On to “91 (KAMVQAWPF; PRAME 9mer) [compound 91]”, for which the “N % * B %” value is 23%.

With 92 (FSWPFQRPV; BRDT 9mer) [compound 92], the “N % * B %” value was found to be 21%.

As for “93 (YSSFVFNLF; NALP4 9mer) [compound 93]”, the “N % * B %” value worked out at 19%.

With “94 (RAMEAFNLV; NALP4 9mer) [compound 94]”, the “N % * B %” value is listed as 18%.

As for “95 (FVIDSFEEL; NALP4 9mer) [compound 95]”, the “N % * B %” value came out at 17%.

On to “97 (FAHPRKLLM; MAGE-A2 9mer) [compound 97]”, for which the “N % * B %” value is 15%.

For “98 (RAIEQLAAM; SURVIVIN 9mer) [compound 98]”, the “N % * B %” value worked out at 15%.

With “99 (YIAQFTSQF; PRAME 9mer) [compound 99]”, the “N % * B %” value is 14%.

With “100 (HVMNPLETL; PRAME 9mer) [compound 100]”, the “N % * B %” value amounted to 14%.

Turning to “101 (FQDFFPVIF; MAGE-A12 9mer) [compound 101]”, the “N % * B %” value came out at 13%.

Turning to “102 (LLRHVMNPL; PRAME 9mer) [compound 102]”, the “N % * B %” value worked out at 13%.

On to “103 (KMMKRLMTV; DPPA2 9mer) [compound 103]”, for which the “N % * B %” value was 13%.

As to “104 (FVLANGHIL; NY-SAR-35 9mer) [compound 104]”, the “N % * B %” value is 12%.

Regarding “105 (MLAKKHFSY; BRDT 9mer) [compound 105]”, the “N % * B %” value was 11%.

With “106 (SVMDLVGSI; LDHC 9mer) [compound 106]”, the “N % * B %” value is 11%.

Regarding “107 (MMDLQHGSL; LDHC 9mer) [compound 107]”, the “N % * B %” value came to 11%.

With “108 (FSTTINYTL; MAGE-A2 9mer) [compound 108]”, the “N % * B %” value is 10%.

Turning to “109 (MASESLSVM; MAGE-C2 9mer) [compound 109]”, the “N % * B %” value was 10%.

Regarding “110 (FVYGEPREL; MAGE-C2 9mer) [compound 110]”, the “N % * B %” value was determined as 10%.

Consider “112 (FVQENYLEY; MAGE-A3 9mer) [compound 112]”, for which the “N % * B %” value was 9%.

Regarding “114 (STFKNWPFL; SURVIVIN 9mer) [compound 114]”, the “N % * B %” value is 9%.

Regarding “115 (YLRLHRHAY; DPPA2 9mer) [compound 115]”, the “N % * B %” value worked out at 9%.

With “117 (SSNSTALAL; KK-LC-1 9mer) [compound 117]”, the “N % * B %” value is 7%.

Consider “118 (FSTSSSLIL; MAGE-C2 9mer) [compound 118]”, for which the “N % * B %” value was 7%.

On to “119 (RALAETSYV; MAGE-A1 9mer) [compound 119]”, for which the “N % * B %” value came out at 5%.

With “SEQ ID NO: 111: 9 mer bestEPI of MAGE-C2 within 15 mer SEQ ID NO: 141; printed 'ill' (SVMSSNVSF; MAGE-C2 9mer)”, the “N % * B %” value turned out to be 9%.

A further test relates to metastatic ovarian adenocarcinoma. Nature of the test: Patient-A clinical outcome and tumor MRI findings (lesion responses). Conditions: SUM of lesions, Dec. 25, 2016, before PIT vaccine treatment. In kind it is in vivo, human. The source says:
For treatment of Patient-A the 13 peptides were formulated as 4×3 or 4 peptide (POC01/1, POC01/2, POC01/3, POC01/4). One treatment cycle is defined as administration of all 13 peptides within 30 days.
2017-2018: Patient-A received 8 cycles of vaccination as add-on therapy, and lived 17 months (528 days) after start of the treatment. […] They died in October 2018.
Patient's tumor MRI findings (Baseline Apr. 15, 2016) (BL: baseline for tumor response evaluation on FIG. 35)
• Rapid progression in lymph nodes, hepatic, retroperitoneal and thoracic areas, significant pleural fluid and ascites. Initiate Carboplatin, Gemcitabine, Avastin. Sep. […] Nov. […] Remission in hepatic, retroperitoneal area and lymph nodes Apr. 13, 2018: Progression • Complete remission in the thoracic and retroperitoneal regions. Progression in hepatic centers and lymph nodes Jun. […] Minimal regression in hepatic centers and lymph nodes July 2018: Progression October 2018: Patient-A died Partial MRI data for Patient-A is shown in Table 23 and FIG. 35.
Consider `O=C(c1cc(Cc2n[nH]c(=O)c3ccccc23)ccc1F)N1CCN(C(=O)C2CC2)CC1` [Olaparib], for which the “FU2 (% Δ from BL)” value is −76.0%.

The test is the same for the next values; noted with them: lesion TL2, Dec. 25, 2016, before PIT vaccine treatment.
Consider `O=C(c1cc(Cc2n[nH]c(=O)c3ccccc23)ccc1F)N1CCN(C(=O)C2CC2)CC1` [Olaparib], for which the “FU2 (% Δ from BL)” value is given as −100.0%.

The test is the same for the next values; noted with them: lesion TL2, follow up 1, Olaparib treatment May 2016-January 2017.
For the compound `O=C(c1cc(Cc2n[nH]c(=O)c3ccccc23)ccc1F)N1CCN(C(=O)C2CC2)CC1` [Olaparib], the “FUI (% Δ from BL)” value is reported as −100.0%.

Staying with this test, now noted: lesion TL2, follow-up time point of best response.
For `O=C(c1cc(Cc2n[nH]c(=O)c3ccccc23)ccc1F)N1CCN(C(=O)C2CC2)CC1` [Olaparib], the “Best Response Cycle” value was “FU1”.

The same test, now with this note: lesion TL4, Dec. 25, 2016, before PIT vaccine treatment.
Take `O=C(c1cc(Cc2n[nH]c(=O)c3ccccc23)ccc1F)N1CCN(C(=O)C2CC2)CC1` [Olaparib]: the “FU2 (% Δ from BL)” value is −100.0%.

Still in this test, the particulars now being: lesion TL4, follow-up time point of best response.
Regarding `O=C(c1cc(Cc2n[nH]c(=O)c3ccccc23)ccc1F)N1CCN(C(=O)C2CC2)CC1` [Olaparib], the “Best Response Cycle” value is reported as “FU2”.

The test system of another test is HLA class I. Nature of the test: PEPI3+ Test: 9 mer epitopes binding to at least 3 HLA class I of individuals in the Model Population (n=433). More on the design: species or system human. Conditions: B % multiplied by N % (antigen expression frequency in gastric cancers). The source says: Predicted binding between particular HLA and epitopes (9 mer peptides) was based on the Immune Epitope Database tool for epitope prediction (iedb.org).
The validated HLA-epitope binding prediction process was used to determine all HLA-epitope binding pairs described in the Examples below.
An in silico human trial cohort of 433 subjects with complete 4-digit HLA class I […] genotype (2×HLA-A*xx:xx; 2×HLA-B*xx:xx; 2×HLA-C*xx:xx) and demographic […] information was compiled. This Model Population has subjects with mixed ethnicity having a total of 152 different HLA alleles that are representative for >85% of presently known allele G-groups.
To select immunogenic peptides from the target CTAs, the PEPI3+ Test and the Model Population described in Example 8 were used to identify the 9 mer epitopes (PEPI3+s) that are most frequently presented by at least 3 HLAs of the individuals in the Model Population. These epitopes are referred to herein as “bestEPIs”. An illustrative example of the “PEPI3+ hotspot” analysis and bestEPI identification is shown in FIG. 15 for the PRAME antigen.
The reported expression frequency for each CTA was multiplied by the frequency of the PEPI3+ hotspots in the Model Population to identify the T cell epitopes (9 mers) that will induce a cytotoxic T cell response against gastric cancer antigens in the highest proportion of individuals (Table 20a). 15 mers were then selected encompassing each of the selected 9 mers (Table 20a). The 15 mers were selected to bind to most HLA class II alleles of most subjects. These 15 mers can induce both CTL and T helper responses in the highest proportion of subjects.
As for “1 (KMMKRLMTV; MAGE-C1 9mer) [compound 1]”, the “B % * N %” value came to 43%.

Take 2 (KMHSLLALM; CAGE-1 9mer) [compound 2]: the “B % * N %” value was 33%.

Take 3 (FSYEQDPTL; TSP50 9mer) [compound 3]: the “B % * N %” value was found to be 29%.

Regarding 4 (YLRLHRHAY; DPPA2 9mer) [compound 4], the “B % * N %” value came to 28%.

5 (LQYENSIML; HIWI 9mer) [compound 5]: the “B % * N %” value is reported as 28%.

Turning to “6 (RAIEQLAAM; SURVIVIN 9mer) [compound 6]”, the “B % * N %” value is given as 26%.

In the case of 7 (FVASINEGM; HIWI 9mer) [compound 7], the “B % * N %” value worked out at 21%.

For 8 (TTMETQFPV; TSP50 9mer) [compound 8], the “B % * N %” value was found to be 21%.

As to 9 (LASNHFLYL; 5T4 9mer) [compound 9], the “B % * N %” value came out at 21%.

On to 10 (FLYLPRDVL; 5T4 9mer) [compound 10], for which the “B % * N %” value was found to be 21%.

For 11 (SSFSSSAPF; 5T4 9mer) [compound 11], the “B % * N %” value was determined as 17%.

Consider “12 (FAHPRKLLM; MAGE-A2 9mer) [compound 12]”, for which the “B % * N %” value is on record as 17%.

In the case of “13 (SSNSTALAL; KK-LC-1 9mer) [compound 13]”, the “B % * N %” value stood at 17%.

As for “14 (STNALIQPV; CAGE-1 9mer) [compound 14]”, the “B % * N %” value was 16%.

As for “15 (STFKNWPFL; SURVIVIN 9mer) [compound 15]”, the “B % * N %” value is listed as 15%.

“16 (FSTTINYTL; MAGE-A2 9mer) [compound 16]”: the “B % * N %” value is given as 12%.

“17 (ILNNFPHSI; KK-LC-1 9mer) [compound 17]”: the “B % * N %” value is recorded as 11%.

With “18 (FVQENYLEY; MAGE-A3 9mer) [compound 18]”, the “B % * N %” value turned out to be 10%.

“19 (ITMPFSSPM; LAGE-1 9mer) [compound 19]”: the “B % * N %” value came out at 9%.

For “21 (YEDHFPLLF; MAGE-A10 9mer) [compound 21]”, the “B % * N %” value was 8%.

Take “22 (TSYVKVLEY; MAGE-A1 9mer) [compound 22]”: the “B % * N %” value is recorded as 8%.

Take “24 (NTDNNLAVY; KK-LC-1 9mer) [compound 24]”: the “B % * N %” value amounted to 8%.

Regarding “25 (KAMVQAWPF; PRAME 9mer) [compound 25]”, the “B % * N %” value was 7%.

Regarding “27 (SAFPTTINF; MAGE-A1 9mer) [compound 27]”, the “B % * N %” value is 7%.

Turning to 28 (MTFGRLHRI; SSX1 9mer) [compound 28], the “B % * N %” value amounted to 7%.

Consider “29 (RALAETSYV; MAGE-A1 9mer) [compound 29]”, for which the “B % * N %” value was determined as 5%.

In the case of “30 (HVMNPLETL; PRAME 9mer) [compound 30]”, the “B % * N %” value is 4%.

These data come from patent US11666644B2, “Peptide vaccines” (TREOS BIO LIMITED, priority 2018, dated 2023).
